From patent US8343963B2, “Sulfamoyl-phenyl-ureido compounds and their use as medicament” (4SC AG, priority 2009, dated 2013) come the findings set out here.

Data set [1] relates to multiresistant Dd2 strain of Plasmodium falciparum. Kind of data set: Antiplasmodial activity against Dd2 strain of Plasmodium falciparum ([8-3H]hypoxanthine incorporation). As to conditions: 66 h, P. falciparum Dd2, 48 h + 18 h with [8-3H]hypoxanthine, 50% parasite growth inhibition, read-out: Antiplasmodia activity (IC50 class). It counts as cell-based. As to the method:
For the determination of the antiplasmodial activity of the compounds described above, the multiresistant Dd2 strain of Plasmodium falciparum was used. The incorporation of [8-^3H]hypoxanthine into the parasitic nucleic acids was measured. The plasmodia were incubated at 0.3% parasitaemia and an erythrocyte haematocrit of 2.5% in the presence of different concentrations of the compounds in a final volume of 200 μl. The medium employed was RPMI 1640 which contained 10% of heat-treated human serum and 3 mg/l of gentamycin. In the incubations, the concentrations of the compounds varied from 0.001 to 100 μM. After 48 h, each batch was treated with 50 μl of [8-^3H]hypoxanthine (1 mCi/ml) and incubated for a further 18 h. The cells were filtered off, washed and suspended in 20 μl of scintillation fluid. The radioactive hypoxanthine absorbed by the parasites was then quantified using a scintillation counter. The results were presented graphically and the IC50 value was determined using a fitting function. The value IC50, the ‘inhibition constant’, indicates the value in μMol/l at which 50% parasite growth inhibition occurs (R. E. Desjardins, et al., Antimicrobiol. Agent Chemother. 16, pp. 710-718, 1979; J. D. Chulay, et al., Exp. Parasitol. 55, pp. 138-146, 1983).

The nature of data set [2]: In vitro clearance using human liver microsomes. As to conditions: human liver microsomes 0.5 mg/ml, 1 μM compound, 37° C., 0-30 min. In kind it is in vitro ADME. The method, then: These experiments were performed at Nikem Research (Via Zambeletti 25; Baranzate, Milan, Italy). Test compounds in duplicate at the final concentration of 1 μM were dissolved in DMSO and pre-incubated for 10 min at 37° C. in phosphate buffer pH 7.4, 3 mM MgCl2, with human liver microsomes at the final concentration of 0.5 mg/ml. After the pre-incubation period, reaction was started by adding the cofactor mixture (NADP, Glc6P, G6P-DH); samples were taken at time 0, 5, 10, 15, 20 and 30 min and added to acetonitrile to quench the metabolic reaction, centrifuged and supernatant analysed and quantified by HPLC/MS. A control sample without cofactors was always added in order to check the chemical stability of test compounds. 7-ethoxycoumarin was added as reference standard. A fixed concentration of verapamil was added in every sample as internal standard for HPLC/MS. The concentration of the remaining compound at different times was determined by HPLC/MS. The rate constant, k (min^−1) derived for the exponential decay equation (peak area vs time) was used to calculate the rate of intrinsic clearance (Cli) of the compounds using the following equations: Cli (μl/min/mg compound)=k×V; where: V (μl/mg compound)=incubation volume/mg compound added. In table 3 the clearance (in vitro metabolic stability) classification was as follows: Cli<10=compound stable; Cli between 10 and 60=low metabolism; Cli between 60 and 600=medium metabolism Cli>600=high metabolism.
Background: Liver microsomes are vesicles of endoplasmic reticulum, rich in cytochrome P450 enzymes.

A short description of data set [3]: Solubility and solubility-range determination in 50 mM phosphate buffer at different pH. In kind it is physicochemical. The note with it: aqueous buffer, kinetic from dmso stock, 1% DMSO, 23° C., read-out: Solubility or solubility range. As to the method:
The compounds were dissolved in DMSO at a concentration of 20 mg/ml. These stock solutions were further diluted 1:1 with DMSO (50 μl solution+50 μl DMSO) in seven steps. Subsequently, these solutions were diluted 1:100 (5 μl DMSO-stock+495 μl 50 mM phosphate buffer) in all four pH buffers (respectively: pH=4; pH=6; pH=7.4; pH=9) resulting in a final DMSO concentration of 1% in the buffers. These dilutions were vigorously mixed and transferred into 96-well reading plate. The plates were incubated in a shaker (600 rpm) at 23° C. for 24 hours. After that, the contents of the wells were mixed with a pipette and optical density (OD) was recorded at wavelengths of 550 nm; 600 nm; 650 nm and 700 nm in the Tecan Sunrise plate reader. The cut-off OD sum for an undissolved concentration of a compound was defined as follows: Cut off OD sum=mean blank OD+0.050 OD. For the determination of the solubility range, the following rule was applied: OD>cut off=>compound not dissolved at this concentration OD<cut-off=>compound dissolved at this concentration For the determination of the solubility, a titration curve (OD/concentration) was prepared and the concentrations were determined based on the measured OD of the mixture supernatant after centrifugation. The solubility values are given in μg/ml (table 3).

pIC50: −log10 of the molar value. In brackets after ≈: the same amount, converted by molar mass. Like-named read-outs stand apart in the source and are kept apart here.

Broadly, the pIC50 is the IC50 on a negative log10 scale, so that one unit is a factor of ten. Take `N=C(c1cccc(NC(=O)Nc2ccc(S(=O)(=O)NCc3ccc(S(N)(=O)=O)cc3)cc2)c1)N1CCN(CC2CC2)CC1` [Compound 66, 4-(3-(3-((4-(cyclopropylmethyl)piperazin-1-yl)(imino)methyl)phenyl)ureido)-N-(4-sulfamoylbenzyl)benzene sulfonamide]: the pIC50 in data set [1] was over 7.70. The “In vitro metabolism as determined from Cli” value (“In vitro metabolism” for short) in data set [2] was “medium (Cli between 60 and 600=medium metabolism)”.
For orientation: solubility means how much of the substance goes into solution per volume. In the case of `CCC(=O)N1CCN(C(=N)c2cccc(NC(=O)Nc3ccc(S(=O)(=O)NCc4ccc(S(N)(=O)=O)cc4)cc3)c2)CC1` [Compound 58, 4-(3-(3-(imino(4-propionylpiperazin-1-yl)methyl)phenyl)ureido)-N-(4-sulfamoylbenzyl)benzenesulfonamide], the pIC50 in data set [1] is over 7.70. Also, in data set [2], the “In vitro metabolism” value was “low (Cli between 10 and 60=low metabolism)”. In addition, the solubility at 24 h in data set [3] (pH 4, 50 mM phosphate buffer) is over 200 µg/mL; in data set [3] (pH 6, 50 mM phosphate buffer), over 200 µg/mL; in data set [3] (pH 7.4, 50 mM phosphate buffer), over 200 µg/mL; in data set [3] (pH 9, 50 mM phosphate buffer), over 200 µg/mL.
In the case of `CN1CCN(C(=N)c2cccc(NC(=O)Nc3ccc(S(=O)(=O)NCc4ccc(S(N)(=O)=O)cc4)cc3)c2)CC1` [Compound 53, 4-(3-(3-(imino(4-methylpiperazin-1-yl)methyl)phenyl)ureido)-N-(4-sulfamoylbenzyl)benzenesulfonamide], in data set [1], the pIC50 is 6.00 to 6.68. The “In vitro metabolism” value in data set [2] was “low (Cli between 10 and 60=low metabolism)”.
As for `CCN1CCN(C(=N)c2cccc(NC(=O)Nc3ccc(S(=O)(=O)NCc4ccc(S(N)(=O)=O)cc4)cc3)c2)CC1` [Compound 37, 4-(3-(3-((4-ethylpiperazin-1-yl)(imino)methyl)phenyl)ureido)-N-(4-sulfamoylbenzyl)benzenesulfonamide], the pIC50 in data set [1] was 6.70 to 7.70. Besides, the “In vitro metabolism” value in data set [2] was “medium (Cli between 60 and 600=medium metabolism)”.
As for `COCCN1CCN(C(=N)c2cccc(NC(=O)Nc3ccc(S(=O)(=O)NCc4ccc(S(N)(=O)=O)cc4)cc3)c2)CC1` [Compound 69, 4-(3-(3-(imino(4-(2-methoxyethyl)piperazin-1-yl)methyl)phenyl)ureido)-N-(4-sulfamoylbenzyl)benzene sulfonamide], the negative-log IC50 (pIC50) in data set [1] is 6.70 to 7.70. Also, the “In vitro metabolism” value in data set [2] is “medium (Cli between 60 and 600=medium metabolism)”.
With `N=C(c1cccc(NC(=O)Nc2ccc(S(=O)(=O)NCc3ccc(S(N)(=O)=O)cc3)cc2)c1)N1CCOCC1` [Compound 43, 4-(3-(3-(imino (morpholino)methyl)phenyl)ureido)-N-(4-sulfamoylbenzyl)benzenesulfonamide], in data set [1], the pIC50 is 6.70 to 7.70. The “In vitro metabolism” value in data set [2] is “medium (Cli between 60 and 600=medium metabolism)”.
With `COC(=O)N1CCN(C(=N)c2cccc(NC(=O)Nc3ccc(S(=O)(=O)NCc4ccc(S(N)(=O)=O)cc4)cc3)c2)CC1` [Compound 60, methyl 4-(imino(3-(3-(4-(N-(4-sulfamoylbenzyl)sulfamoyl)phenyl)ureido)phenyl)methyl)piperazine-1-carboxylate], the pIC50 in data set [1] is over 7.70. Besides, the “In vitro metabolism” value in data set [2] is “medium (Cli between 60 and 600=medium metabolism)”. Also, the solubility at 24 h in data set [3] (pH 4, 50 mM phosphate buffer) was determined as 1480 µg/mL (≈ 2350 µM); in data set [3] (pH 6, 50 mM phosphate buffer) it was 1290 µg/mL (≈ 2040 µM); in data set [3] (pH 7.4, 50 mM phosphate buffer) it was 763 µg/mL (≈ 1210 µM); in data set [3] (pH 9, 50 mM phosphate buffer), 456 µg/mL (≈ 724 µM).
For the compound `CN(C)C(=N)c1cccc(NC(=O)Nc2ccc(S(=O)(=O)NCc3ccc(S(N)(=O)=O)cc3)cc2)c1` [Compound 64, N,N-dimethyl-3-(3-(4-(N-(4-sulfamoylbenzyl)sulfamoyl)phenyl)ureido)benzimidamide], the pIC50 in data set [1] is 6.00 to 6.68. Also, in data set [2], the “In vitro metabolism” value is “low (Cli between 10 and 60=low metabolism)”.
Consider `CCCCN1CCN(C(=N)c2cccc(NC(=O)Nc3ccc(S(=O)(=O)NCc4ccc(S(N)(=O)=O)cc4)cc3)c2)CC1=O` [Compound 63, 4-(3-(3-((4-butyl-3-oxopiperazin-1-yl)(imino)methyl)phenyl)ureido)-N-(4-sulfamoylbenzyl)benzenesulfonamide], for which the pIC50 in data set [1] is over 7.70. In addition, the “In vitro metabolism” value in data set [2] is “medium (Cli between 60 and 600=medium metabolism)”.
Take `CCCCN1CCN(C(=N)c2cccc(NC(=O)Nc3ccc(S(=O)(=O)NCc4ccc(S(N)(=O)=O)s4)cc3)c2)CC1` [Compound 70, 5-((4-(3-(3-((4-butylpiperazin-1-yl)(imino)methyl)phenyl)ureido)phenylsulfonamido)methyl)thiophene-2-sulfonamide]: the pIC50 in data set [1] was 6.70 to 7.70. The “In vitro metabolism” value in data set [2] was “medium (Cli between 60 and 600=medium metabolism)”.
With `CCCCN1CCN(C(=N)c2cccc(NC(=O)Nc3ccc(S(=O)(=O)Nc4ccc(S(N)(=O)=O)cc4)cc3)c2)CC1` [Compound 23, 4-(3-(3-((4-butylpiperazin-1-yl)(imino)methyl)phenyl)ureido)-N-(4-sulfamoylphenyl)benzenesulfonamide], in data set [1], the negative logarithm of the IC50 (pIC50) is 6.00 to 6.68. Moreover, the “In vitro metabolism” value in data set [2] was “low (Cli between 10 and 60=low metabolism)”.
Regarding `CCCCN1CCN(C(=N)c2cccc(NC(=O)Nc3ccc(S(N)(=O)=O)cc3)c2)CC1` [Compound 1, 4-(3-(3-((4-butylpiperazin-1-yl)(imino)methyl)phenyl)ureido)benzenesulfonamide], the negative-log IC50 (pIC50) in data set [1] is at most 6.00. Besides, the “In vitro metabolism” value in data set [2] was “low (Cli between 10 and 60=low metabolism)”.
As to `CC(C)N1CCN(C(=N)c2cccc(NC(=O)Nc3ccc(S(=O)(=O)NCc4ccc(S(N)(=O)=O)cc4)cc3)c2)CC1` [Compound 54, 4-(3-(3-(imino(4-isopropylpiperazin-1-yl)methyl)phenyl)ureido)-N-(4-sulfamoylbenzyl)benzenesulfonamide], in data set [1], the negative logarithm of the IC50 (pIC50) is 6.70 to 7.70. The “In vitro metabolism” value in data set [2] was “medium (Cli between 60 and 600=medium metabolism)”.
As for `N#CCCN1CCN(C(=N)c2cccc(NC(=O)Nc3ccc(S(=O)(=O)NCc4ccc(S(N)(=O)=O)cc4)cc3)c2)CC1` [Compound 65, 4-(3-(3-((4-(2-cyanoethyl)piperazin-1-yl)(imino)methyl)phenyl)ureido)-N-(4-sulfamoylbenzyl)benzene sulfonamide], in data set [1], the pIC50 was 6.00 to 6.68. Also, the “In vitro metabolism” value in data set [2] is “medium (Cli between 60 and 600=medium metabolism)”.
On to `CCCCN1CCN(C(=N)c2cccc(NC(=O)Nc3ccc(S(=O)(=O)N4Cc5ccc(S(N)(=O)=O)cc5C4)cc3)c2)CC1` [Compound 41, 2-(4-(3-(3-((4-butylpiperazin-1-yl)(imino)methyl)phenyl)ureido)phenylsulfonyl)isoindoline-5-sulfonamide], for which the pIC50 in data set [1] was 6.70 to 7.70. Moreover, the “In vitro metabolism” value in data set [2] is “medium (Cli between 60 and 600=medium metabolism)”.
